Measured values published in ChEMBL document CHEMBL1150525, “Phosphate derivatives of d4T as inhibitors of HIV” (Bioorg Med Chem Lett, 1993).
pEC50: −log10 of the molar value.

Tests used:
C8166 = assay: Ability to inhibit the replication of HIV-1 IIIB infected C8166 cells; format: functional, cell-based; settings: Homo sapiens
[1] = Toxic concentration against HIV-1 IIIB in C8166 T-cells; format: ADME, cell-based; settings: human, read-out: TC50 (the source's name)

SMILES	pEC50 (C8166)	CC50 [1] [µM]
CCCOP(=O)(NC(C)C(=O)OC)OCC1C=CC(n2cc(C)c(=O)[nH]c2=O)O1 (centres undefined)	3.70	250
Cc1cn(C2C=CC(COP(=O)(OCC(F)(F)F)OCC(F)(F)F)O2)c(=O)[nH]c1=O (centres undefined)	4.82	500
COC(=O)C(C)NP(=O)(OCC1C=CC(n2cc(C)c(=O)[nH]c2=O)O1)OCC(Cl)(Cl)Cl (centres undefined)	6.70	500
CCCOP(=O)(OCC1C=CC(n2cc(C)c(=O)[nH]c2=O)O1)OCC(Cl)(Cl)Cl (centres undefined)	4.70	500

More lines, main results first:

pEC50 (C8166)	SMILES	CC50 [1] [µM]
7.10	Cc1cn([C@H]2C=C[C@@H](CO)O2)c(=O)[nH]c1=O [STAVUDINE]	50
6.40	Cc1cn(C2C=CC(COP(=O)(OCC(Cl)(Cl)Cl)OCC(Cl)(Cl)Cl)O2)c(=O)[nH]c1=O (centres undefined)	150
< 3.70	CCCOP(=O)(OCCC)OCC1C=CC(n2cc(C)c(=O)[nH]c2=O)O1 (centres undefined)	200
